We go through 9 molecules from patent publication US20110039819A1, “SUBSTITUTED PHENOXYBENZAMIDES” (priority 2008, published 2011).

SMILES strings stand for the structures. Like-named read-outs stand apart in the source and are kept apart here.

For assay [1], the target named is T1, MEK1 (Homo sapiens, UniProt Q02750).
T1 construct: purchased Millipore 14-420 (GST-MEK1); 14-703 (Cot1); host or cells: Cot1: insect cells (SF21)
The experiment in a line: MEK1 activation kinase assay (Assay 2, HTRF; Cot1 phosphorylates GST-MEK1). The class given is biochemical. Here is the method: MEK1 Activation Kinase Assay
The kinase Cot1 activates MEK1 by phosphorylating its activation loop. The inhibitory activity of compounds of the present invention on this activation of MEK1 was quantified employing the HTRF assay described in the following paragraphs.
As substrate for the kinase reaction the unactive C-terminally His6-tagged GST-MEK1 fusion protein (Millipore cat. no 14-420) was used.
Then the kinase reaction was started by the addition of 2 μl of a solution of Cot1 in assay buffer and the resulting mixture was incubated for a reaction time of 20 min at 22° C. The concentration of Cot1 in the assay was adjusted depending of the activity of the enzyme lot and was chosen appropriate to have the assay in the linear range, typical enzyme concentrations were in the range of about 2 ng/μl (final conc. in the 5 μl assay volume).
The resulting mixture was incubated 2 h at 22° C. to allow the binding of the phosphorylated GST-MEK1 to the anti-GST-XL665 and the Eu-cryptate labelled anti-phospho-MEK 1/2 antibody. Subsequently the amount of Ser217/Ser221-phosphorylated substrate was evaluated by measurement of the resonance energy transfer from the Eu-Cryptate-labelled anti-phospho-MEK antibody to the anti-GST-XL665.
Background: Time-resolved FRET reads energy transfer from a long-lived donor to a nearby acceptor.

Assay [2] deals with colon cancer. As to conditions: oral treatment, mouse models, reference [18]; cited from earlier work.
For assay [3], the system named is MEK1/2. As to conditions: second-generation MEK1/2 inhibitor, reference [17]; cited from earlier work.
[4] abbreviates: mean values from 2 or more measurements, read-out: Assay 2 IC50 values (nanomolar) (MEK1 activation kinase assay) (values are mean values from 2 or more measurements).
[5] abbreviates: representative example compounds, read-out: IC50 in MEK1 activation kinase assay.

T1 sequence (Q02750 whole entry): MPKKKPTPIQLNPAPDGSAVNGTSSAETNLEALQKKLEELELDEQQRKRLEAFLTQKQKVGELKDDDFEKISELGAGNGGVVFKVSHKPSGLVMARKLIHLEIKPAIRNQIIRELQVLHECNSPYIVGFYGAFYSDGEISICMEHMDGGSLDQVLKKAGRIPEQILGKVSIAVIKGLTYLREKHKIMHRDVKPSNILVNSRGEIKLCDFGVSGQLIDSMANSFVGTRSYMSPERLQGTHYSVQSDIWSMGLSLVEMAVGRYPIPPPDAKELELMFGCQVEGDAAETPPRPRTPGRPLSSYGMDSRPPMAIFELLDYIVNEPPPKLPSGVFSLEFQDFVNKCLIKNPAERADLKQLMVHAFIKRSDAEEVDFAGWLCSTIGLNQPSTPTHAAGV

As for `CC(C)(O)C(O)CCOc1cc(F)cc(Nc2ccc(I)cc2F)c1C(N)=O` (stereo not shown) [Example 6.1, 2-(3,4-Dihydroxy-4-methyl-pentyloxy)-4-fluoro-6-(2-fluoro-4-iodo-phenylamino)-benzamide], the IC50 (as a rule, the point on the concentration scale where inhibition reaches its midpoint) in assay [1] (setting [4]) worked out at 19.7 nM. As for `CC(O)(CO)CCOc1cc(F)cc(Nc2ccc(I)cc2F)c1C(N)=O` (stereo not shown) [Example 6.2, 2-(3,4-Dihydroxy-3-methyl-butoxy)-4-fluoro-6-(2-fluoro-4-iodo-phenylamino)-benzamide], the IC50 in assay [1] (setting [4]) worked out at 69.3 nM. The same measure, in the same setting: as for `C#Cc1ccc(Nc2cc(F)cc(Oc3cccc(NS(=O)(=O)N(C)C)c3)c2C(N)=O)c(F)c1` [Example 7.2, 2-[3-[[(dimethylamino)sulfonyl]amino]phenoxy]-4-fluoro-6-[(4-ethynyl-2-fluorophenyl)amino]-benzamide], the figure is 13.5 nM; as for `C#Cc1ccc(Nc2cc(F)cc(Oc3cccc(NS(=O)(=O)NCCC)c3)c2C(N)=O)c(F)c1` [Example 7.3, 2-[3-[[(propylamino)sulfonyl]amino]phenoxy]-4-fluoro-6-[(4-ethynyl-2-fluorophenyl)amino]-benzamide], 46.7 nM; as for `C#Cc1ccc(Nc2c(F)c(F)c(F)c(Oc3cccc(NS(=O)(=O)N(C)C)c3)c2C(N)=O)c(F)c1` [Example 7.4, 2-{3-[(dimethylsulfamoyl)amino]phenoxy}-6-[(4-ethynyl-2-fluorophenyl)amino]-3,4,5-trifluorobenzamide], 12.3 nM. As for `CN(C)S(=O)(=O)N(C)c1cccc(Oc2cc(F)cc(Nc3ccc(I)cc3F)c2C(N)=O)c1` [Example 10.6, 6-[3-[[(dimethylamino)sulfonyl](methyl)-amino]phenoxy]-4-fluoro-2-[(2-fluoro-4-iodophenyl)amino]-benzamide], the IC50 in assay [1] (setting [4]) is 49.1 nM; in assay [1] (setting [5]), < 1000 nM. On the same counts, the results for `NC(=O)c1c(Nc2ccc(I)cc2F)cc(F)cc1Oc1cccc(C(=O)O)c1` [Example 10.7, 3-[2-Carbamoyl-5-fluoro-3-(2-fluoro-4-iodo-phenylamino)-phenoxy]-benzoic acid] are 33.2 nM and < 1000 nM. For the molecule `CS(=O)(=O)c1cccc(Oc2cc(F)cc(Nc3ccc(I)cc3F)c2C(N)=O)c1` [Example 10.8, 4-Fluoro-2-(2-fluoro-4-iodo-phenylamino)-6-(3-methanesulfonyl-phenoxy)-benzamide], the IC50 in assay [1] (setting [4]) is 29.4 nM; in assay [1] (setting [5]) it was < 1000 nM.

With `O=C(NOCC1CC1)c1ccc(F)c(F)c1Nc1ccc(I)cc1Cl` [PD184352], the “inhibition of colon cancer growth” value in assay [2] was “inhibit colon cancer growth in vivo”. Besides, the IC50 entry in assay [3] is listed as “low nanomolar range”.
